{"source": "patent US20220143016A1", "about": "“METHOD FOR TREATING A MULTIPLE MYELOMA” (PTC THERAPEUTICS, INC., priority 2019, published 2022)", "key": {"[1]": {"system": "parental and PI-resistant HMCLs", "assay": "Cytotoxicity in human MM cell lines (HMCLs)", "format": "cell-based", "details": "parental and PI-resistant HMCLs (n=16), read-out: median IC50", "experimental": "(§1) The effect of Compound 1 was tested in human MM cell lines (HMCLs) using cytotoxicity, colony formation, co-culture, qPCR, Western Blot, flow cytometry, ELISA, and lentiviral transduction experiments. The effect of Compound 1 was assessed in vivo in the 5TGM1 murine model of MM."}, "[2]": {"system": "BMI-1", "assay": "BMI-1 protein expression in HMCLs", "format": "cell-based, human", "details": "within 24 hrs of treatment", "experimental": "as §1"}, "[3]": {"system": "MM cells", "assay": "Time course experiments: mitotic arrest and apoptosis in MM cells", "format": "cell-based, human", "experimental": "as §1"}, "[4]": {"system": "MYC, AKT, ERK, GSK3b, FOXM1", "assay": "Central MM signalling cascades and key MM gene protein expression", "format": "cell-based, human", "experimental": "as §1"}, "[5]": {"system": "MM cells", "assay": "Drug combination studies in MM cell lines", "format": "cell-based, human", "experimental": "as §1"}, "[6]": {"system": "5TGM1 murine model of MM", "assay": "5TGM1 murine model of MM, bone marrow infiltration", "format": "in vivo", "details": "5TGM1 model", "experimental": "as §1"}, "[7]": {"system": "microtubule polymerization", "assay": "Mechanistic studies of microtubule polymerization"}}, "note": "Entries after “also recorded” stand apart in the source; their conditions may differ.", "data": [{"smiles": "Cc1nc2ccc(F)cc2n1-c1nc(N)c(F)c(Nc2ccc(C(F)(F)F)cc2)n1", "note": "[Compound 1, 5-fluoro-2-(6-fluoro-2-methyl-1H-benzo[d]imidazol-1-yl)-N^4-[4-(trifluoromethyl)phenyl]pyrimidine-4,6-diamine]", "values": [{"measurement": "IC50", "setting": "[1]", "result": 57.2, "unit": "nM"}, {"measurement": "BMI-1 protein expression", "setting": "[2]", "result": "downregulated BMI-1 protein expression"}, {"measurement": "mitotic arrest", "setting": "[3]; 6-24 h post treatment, elevated Cyclin B1, AURKA and BIRC5, downregulation of MCL1", "result": "potent mitotic arrest"}, {"measurement": "rescue of MM cells with BMI-1 overexpression", "setting": "[3]; BMI-1 overexpression", "result": "did not rescue"}, {"measurement": "apoptosis", "setting": "[3]; after prolonged mitosis, Annexin V positive cells, cleaved caspases 8 and 9, cleaved PARP, loss of MCL1, mitochondrial membrane depolarization", "result": "induction of apoptosis"}, {"measurement": "ERK and GSK3b activity", "setting": "[4]", "result": "unaffected"}, {"measurement": "MYC and AKT activity", "setting": "[4]", "result": "significant reduction"}, {"measurement": "MYC and FOXM1 protein expression", "setting": "[4]", "result": "Downregulation"}, {"measurement": "combination effect with established drugs and BH3 mimetics", "setting": "[5]; IMiDs, Dex, PIs, MEL, BH3 mimetics targeting BCL2, BCLxL, MCL1, in individual cell lines", "result": "synergism"}, {"measurement": "combination effect with epigenetic modulators", "setting": "[5]; targeting EZH2, CBP/EP300, BRD4, HDACs", "result": "Consistent synergism"}, {"measurement": "MM cells after treatment", "setting": "[6]; 30 mg/kg/biweekly", "result": "complete eradication of MM cells"}, {"measurement": "BM infiltration", "setting": "[6]; various doses versus vehicle (FIG. 1, *P<0.0001)", "result": "dose response reduction; also recorded: reproducible dose dependent reduction"}, {"measurement": "microtubule polymerization", "setting": "[7]", "result": "inhibits microtubule polymerization"}]}]}
